Data taken from patent US7030150B2, “Benzimidazole compounds and antiviral uses thereof” (Trimeris, Inc., priority 2001, dated 2006).

Test system: uninfected Hep2 cells

| SMILES | CC50 [µM] |
| --- | --- |
| CCCNCc1nc2ccccc2n1Cc1nc2ccccc2[nH]1 [compound 128] | ≥ 100 |
| CC(C)OCCCNCc1nc2ccccc2n1Cc1nc2ccccc2[nH]1 [compound 129] | ≥ 100 |
| CN(Cc1nc2ccccc2n1Cc1nc2ccccc2[nH]1)CC(O)c1ccc(O)cc1 (centres unmarked) [compound 97] | 77 |
| COCCCNCc1nc2ccccc2n1Cc1nc2ccccc2[nH]1 [compound 116] | ≥ 100 |
| CCN(CCO)Cc1nc2ccccc2n1Cc1nc2ccccc2[nH]1 [compound 96] | ≥ 100 |
| COc1cccc(CNCc2nc3ccccc3n2Cc2nc3ccccc3[nH]2)c1OC [compound 181] | ≥ 100 |
| c1ccc2[nH]c(Cn3c(CN4CCC5CCCCC5C4)nc4ccccc43)nc2c1 (centres unmarked) [compound 234] | 24 |
| FC(F)(F)Oc1ccccc1Cn1c(CN2CCCCC2)nc2ccccc21 [compound 62] | 34 |
| Clc1ccc(CCNCc2nc3ccccc3n2Cc2nc3ccccc3[nH]2)cc1 [compound 163] | 16 |
| CCN(Cc1nc2ccccc2n1Cc1nc2ccccc2[nH]1)C(C)C [compound 81] | 63 |
| CCN(CC)CCCC(C)NCc1nc2ccccc2n1Cc1nc2ccccc2[nH]1 (centres unmarked) [compound 148] | ≥ 100 |
| Cc1nc(Cn2c(CN3CCCCC3)nc3ccccc32)cs1 [compound 51] | 50 |
| CN1CCN(CCCNCc2nc3ccccc3n2Cc2nc3ccccc3[nH]2)CC1 [compound 112] | ≥ 100 |
| c1ccc2[nH]c(Cn3c(CNC4CCCCC4)nc4ccccc43)nc2c1 [compound 165] | ≥ 100 |
| CSc1ccc(Cn2c(CN(C(C)C)C3CCCCC3)nc3ccccc32)cc1 [compound 14] | 30 |
| Cc1nc(Cn2c(CN(Cc3ccccc3)C(C)C)nc3ccccc32)cs1 [compound 40] | 50 |
| O=C1CCCN1CCCNCc1nc2ccccc2n1Cc1nc2ccccc2[nH]1 [compound 141] | 35 |
| O=C(OCc1ccccc1)N1CCCCN(Cc2nc3ccccc3n2Cc2nc3ccccc3[nH]2)CC1 [compound 232] | ≥ 100 |
| c1ccc(CCNCc2nc3ccccc3n2Cc2nc3ccccc3[nH]2)nc1 [compound 125] | ≥ 100 |
| CN(C)CCCN(CCCN(C)C)Cc1nc2ccccc2n1Cc1nc2ccccc2[nH]1 [compound 101] | ≥ 100 |
| COc1ccc(N(C)Cc2nc3ccccc3n2Cc2nc3ccccc3[nH]2)cc1 [compound 110] | ≥ 100 |
| c1ccc2nc(Cn3c(CN4CCCCC4)nc4ccccc43)ccc2c1 [compound 50] | 50 |
| FC(F)(F)c1ccc(CNCc2nc3ccccc3n2Cc2nc3ccccc3[nH]2)cc1 [compound 151] | ≥ 100 |

| SMILES | CC50 [µM] |
| --- | --- |
| OCC1CCCN1Cc1nc2ccccc2n1Cc1nc2ccccc2[nH]1 (centres unmarked) [compound 209] | ≥ 100 |
| Cc1nc(Cn2c(CN(C(C)C)C3CCCCC3)nc3ccccc32)cs1 [compound 2] | 50 |
| CC1CCCCN1CCCNCc1nc2ccccc2n1Cc1nc2ccccc2[nH]1 (centres unmarked) [compound 160] | 88 |
| C=C(C)CN(CC)Cc1nc2ccccc2n1Cc1nc2ccccc2[nH]1 [compound 89] | ≥ 100 |
| FC(F)(F)c1cccc(N2CCN(Cc3nc4ccccc4n3Cc3nc4ccccc4[nH]3)CC2)c1 [compound 219] | ≥ 100 |
| Fc1ccc(F)c(CNCc2nc3ccccc3n2Cc2nc3ccccc3[nH]2)c1 [compound 114] | ≥ 100 |
| FC(F)(F)Oc1ccc(CNCc2nc3ccccc3n2Cc2nc3ccccc3[nH]2)cc1 [compound 115] | ≥ 100 |
| c1ccc2[nH]c(Cn3c(CN4CCCCC4)nc4ccccc43)nc2c1 [compound 79] | ≥ 100 |
| COC(=O)c1ccc2nc(CN3CCOCC3)n(Cc3nc4ccccc4[nH]3)c2c1 [compound 11] | 26 |
| CCCN(Cc1nc2ccccc2n1Cc1csc(C)n1)CC1CC1 [compound 21] | 50 |
| CNCc1nc2ccccc2n1Cc1nc2ccccc2[nH]1 [compound 164] | ≥ 100 |
| FC(F)(F)c1ccccc1CNCc1nc2ccccc2n1Cc1nc2ccccc2[nH]1 [compound 139] | 18 |
| O=C1C(=O)N(Cc2nc3ccccc3n2Cc2nc3ccccc3[nH]2)c2ccc([N+](=O)[O-])cc21 [compound 236] | ≥ 100 |
| OCC1CCCN(Cc2nc3ccccc3n2Cc2nc3ccccc3[nH]2)C1 (centres unmarked) [compound 211] | 32 |
| c1ccc2[nH]c(Cn3c(CNC4CCCC4)nc4ccccc43)nc2c1 [compound 177] | ≥ 100 |
| c1ccc2[nH]c(Cn3c(CN4CCC4)nc4ccccc43)nc2c1 [compound 200] | 7.6 |
| O=[N+]([O-])c1ccc(Cn2c(CN3CCCCC3)nc3ccccc32)o1 [compound 54] | 97 |
| Fc1cc(F)cc(CNCc2nc3ccccc3n2Cc2nc3ccccc3[nH]2)c1 [compound 173] | 6.4 |
| c1ccc2[nH]c(Cn3c(CNCCCN4CCCC4)nc4ccccc43)nc2c1 [compound 147] | ≥ 100 |
| CN(Cc1nc2ccccc2n1Cc1nc2ccccc2[nH]1)C(c1ccccc1)c1ccccc1 [compound 111] | ≥ 100 |
| OCCOCCN1CCN(Cc2nc3ccccc3n2Cc2nc3ccccc3[nH]2)CC1 [compound 216] | 9 |
| COc1ccccc1CCNCc1nc2ccccc2n1Cc1nc2ccccc2[nH]1 [compound 175] | ≥ 100 |
| CCCCN(CC)Cc1nc2ccccc2n1Cc1nc2ccccc2[nH]1 [compound 92] | 68 |

| SMILES | CC50 [µM] |
| --- | --- |
| CN(Cc1ccco1)Cc1nc2ccccc2n1Cc1nc2ccccc2[nH]1 [compound 85] | ≥ 100 |
| Clc1cccc(CNCc2nc3ccccc3n2Cc2nc3ccccc3[nH]2)c1 [compound 157] | ≥ 100 |
| c1ccc2[nH]c(Cn3c(CNCCCN4CCOCC4)nc4ccccc43)nc2c1 [compound 124] | ≥ 100 |
| CCCCC(CO)NCc1nc2ccccc2n1Cc1nc2ccccc2[nH]1 (centres unmarked) [compound 176] | ≥ 100 |
| c1ccc2[nH]c(Cn3c(CN4CCC(C5CCNCC5)CC4)nc4ccccc43)nc2c1 [compound 217] | ≥ 100 |
| c1ccc(CN2CCN(Cc3nc4ccccc4n3Cc3nc4ccccc4[nH]3)CC2)cc1 [compound 231] | 15 |
| FC(F)(F)Oc1cccc(CNCc2nc3ccccc3n2Cc2nc3ccccc3[nH]2)c1 [compound 127] | ≥ 100 |
| CCN(CC)CCNCc1nc2ccccc2n1Cc1nc2ccccc2[nH]1 [compound 162] | ≥ 100 |
| c1ccc2[nH]c(Cn3c(CNC4CC5CCC4C5)nc4ccccc43)nc2c1 (centres unmarked) [compound 119] | ≥ 100 |
| CC1CC(C)CN(Cc2nc3ccccc3n2Cc2nc3ccccc3[nH]2)C1 (centres unmarked) [compound 205] | ≥ 100 |
| c1ccc2[nH]c(Cn3c(CN4CCSC4)nc4ccccc43)nc2c1 [compound 222] | ≥ 100 |
| c1cncc(CNCc2nc3ccccc3n2Cc2nc3ccccc3[nH]2)c1 [compound 113] | ≥ 100 |
| COC(=O)CN(C)Cc1nc2ccccc2n1Cc1nc2ccccc2[nH]1 [compound 95] | ≥ 100 |
| CC(C)CCN(CCC(C)C)Cc1nc2ccccc2n1Cc1nc2ccccc2[nH]1 [compound 87] | ≥ 100 |
| Fc1cc2c(c(Cn3c(CN4CCCCC4)nc4ccccc43)c1)OCOC2 [compound 59] | ≥ 100 |
| FC(F)(F)Oc1ccccc1Cn1c(CN2CCCCC2)nc2ccccc21 [compound 75] | 24 |
| CC(C)NCc1nc2ccccc2n1Cc1nc2ccccc2[nH]1 [compound 152] | ≥ 100 |
| Fc1cc2c(c(Cn3c(CN4CCCCC4)nc4ccccc43)c1)OCOC2 [compound 73] | 101 |
| CCCCCN(C)Cc1nc2ccccc2n1Cc1nc2ccccc2[nH]1 [compound 91] | 80 |
| c1coc(CNCc2nc3ccccc3n2Cc2nc3ccccc3[nH]2)c1 [compound 154] | ≥ 100 |
| CCN1CCN(Cc2nc3ccccc3n2Cc2nc3ccccc3[nH]2)CC1 [compound 230] | ≥ 100 |
| C1=CCN(Cc2nc3ccccc3n2Cc2nc3ccccc3[nH]2)CC1 [compound 202] | ≥ 100 |
| Clc1ccc(CNCc2nc3ccccc3n2Cc2nc3ccccc3[nH]2)cc1Cl [compound 138] | 6.5 |

| SMILES | CC50 [µM] |
| --- | --- |
| CN(CCc1ccccn1)Cc1nc2ccccc2n1Cc1nc2ccccc2[nH]1 [compound 98] | ≥ 100 |
| c1ccc(C(CNCc2nc3ccccc3n2Cc2nc3ccccc3[nH]2)c2ccccc2)cc1 [compound 132] | ≥ 100 |
| c1ccc2c(NCc3nc4ccccc4n3Cc3nc4ccccc4[nH]3)cccc2c1 [compound 180] | 14 |
| Cc1ccc(N2CCN(Cc3nc4ccccc4n3Cc3nc4ccccc4[nH]3)CC2)c(C)c1 [compound 227] | ≥ 100 |
| FC(F)(F)c1cnc(N2CCCN(Cc3nc4ccccc4n3Cc3nc4ccccc4[nH]3)CC2)c(Cl)c1 [compound 215] | ≥ 100 |
| CCCCCCCCN(CCCCCCCC)Cc1nc2ccccc2n1Cc1nc2ccccc2[nH]1 [compound 106] | 74 |
| CSc1ccc(Cn2c(CN3CCCCC3)nc3ccccc32)cc1 [compound 61] | 20 |
| O=C1c2ccccc2C(=O)N1Cc1nc2ccccc2n1Cc1nc2ccccc2[nH]1 [compound 226] | 50 |
| c1ccc2[nH]c(Cn3c(CN4CCC(N5CCCC5)CC4)nc4ccccc43)nc2c1 [compound 228] | 60 |
| c1ccc2[nH]c(Cn3c(CN4CCC5CCCCC5C4)nc4ccccc43)nc2c1 (centres unmarked) [compound 214] | ≥ 100 |
| CCOC(=O)C1CCN(Cc2nc3ccccc3n2Cc2nc3ccccc3[nH]2)CC1 [compound 203] | ≥ 100 |
| CCN(Cc1ccncc1)Cc1nc2ccccc2n1Cc1nc2ccccc2[nH]1 [compound 99] | ≥ 100 |
| C=CCN(C)Cc1nc2ccccc2n1Cc1nc2ccccc2[nH]1 [compound 83] | 58 |
| O=[N+]([O-])c1ccc(Cn2c(CN3CCCCC3)nc3ccccc32)o1 [compound 77] | ≥ 100 |
| CCCCCCN(C)Cc1nc2ccccc2n1Cc1nc2ccccc2[nH]1 [compound 88] | ≥ 100 |
| OCCNCc1nc2ccccc2n1Cc1nc2ccccc2[nH]1 [compound 117] | ≥ 100 |
| CC(C)N(Cc1nc2ccccc2n1Cc1nc2ccccc2[nH]1)CC(O)c1ccc(O)c(O)c1 (centres unmarked) [compound 107] | ≥ 100 |
| CC1C=CC(C)N1Cc1nc2ccccc2n1Cc1nc2ccccc2[nH]1 (centres unmarked) [compound 207] | ≥ 100 |
| COc1cc(Cn2c(CN(C(C)C)C3CCCCC3)nc3ccccc32)cc(OC)c1 [compound 3] | 50 |
| CN1CCCC1CCNCc1nc2ccccc2n1Cc1nc2ccccc2[nH]1 (centres unmarked) [compound 172] | 95 |
